# Measured values taken from patent publication US4849428A, “Cyclic anti-inflammatory derivatives of di-tert-butylphenol compounds, compositions and use” (The Procter & Gamble Company, priority 1987, dated 1989).
# Columns and labels:
# [1] = test system: Carrageenan Rat Paw Edema; test: Carrageenan Rat Paw Edema Test; format: in vivo, Male Sprague-Dawley rats; details: for Percent Inhibition at 100 mg/kg dose p.o.: 100 mg/kg p.o. 1 h before carrageenan, paw volume 4 h after carrageenan, relative to control; for ED35: oral, by regression analysis, read-out: ID35
# Experimental: Carrageenan Rat Paw Edema Test
# Male Sprague-Dawley rats (Charles River Laboratories) are weighed and food fasted overnight. The animals are then divided into four to six groups of six animals each according to body weights (average about 145 g) so that each group has about the same average body weight (within 10 g).
# The following morning animals are dosed with the test compound and then placed in individual cages. For oral dosing, the drug is suspended in 0.5% methyl cellulose with 2% Tween 80, and delivered via stomach tube in a 5 ml volume.
# Paw volumes (0 time) are determined on both hind paws with a mercury displacement device equipped with a transducer and digitizer. One hour after dosing the test compound, the animals are placed in a plastic restrainer and 50 ul of a 1% (w/w) carrageenan solution in 0.9% saline is injected into the ventral surface of the left rear paw. Four hours after the carrageenan injection, the paw volumes are again determined.
# The results are expressed as percent inhibition of the mean paw volume of the test group relative to the control group. Statistical differences are determined by one way analysis of variance. ID35 values are determined by regression analysis.
# osteoarthritis = test: Oral tablets in patients with osteoarthritis; format: in vivo, patient; details: tablet, twice daily
# Experimental: (§1) Tablets are prepared by conventional methods, such as mixing and direct compaction, formulated as follows: […]
# rheumatoid arthritis = test: Oral tablets in patients with rheumatoid arthritis; format: in vivo, patient; details: tablet, orally two times daily
# Experimental: as §1
# [2] = test system: rheumatoid arthritis or osteoarthritis; test: Oral capsules in patients with rheumatoid arthritis or osteoarthritis; format: in vivo, patient; details: capsule, orally once a day
# Experimental: Capsules are prepared by conventional methods, comprised as follows: […]
Structure (SMILES),Percent Inhibition at 100 mg/kg dose p.o. [1],ED35 [1],benefit in osteoarthritis patient (osteoarthritis),reduction of inflammation in rheumatoid arthritis patient (rheumatoid arthritis),reduction of symptomology in rheumatoid arthritis or osteoarthritis patient [2]
C#CCCCC(=O)c1cc(C(C)(C)C)c2c(c1)C(C)(C)CO2 [Compound 8C],48.8%,2.4 mg/kg,significant benefit,significantly reduces the inflammation,substantially reduces the symptomology
C#CC(O)CCC(=O)c1cc(C(C)(C)C)c2c(c1)C(C)(C)CO2 (stereo not drawn) [Compound 8D],60.8%,1.6 mg/kg,,,
C#CCCCC(=O)c1cc(C(C)(C)C)c2c(c1)C(C)(C)C(O)O2 (stereo not drawn) [Compound 13C],53.2%,12.9 mg/kg,,,
